Source: article PMC8915595, “Revisiting the application of Immobilized Artificial Membrane (IAM) chromatography to estimate in vivo distribution properties of drug discovery compounds based on the model of marketed drugs” (ADMET & DMPK, 2020)
Read-outs that look alike come from different tables or passages of the source.

What was measured:
[1] = IAM chromatography on new IAM.PC.DD2 columns (gradient HPLC, CHI (IAM)); type: physicochemical; design: key to CHI (IAM) “new” / P20511-014-3 CHI (IAM): CHI (IAM) from retention times calibrated to predefined CHI standards; conditions: for log K (IAM): constant values of the calibration set, CHI IAM converted to octanol/water lipophilicity scale by equation 7; for P20511-014-3 CHI (IAM): new IAM.PC.DD2 column batch P20511-014-3, pH 7.4; for R20511-014-3 CHI (IAM): new IAM.PC.DD2 column batch R20511-014-3, pH 7.4
Experimental: The IAM binding was measured using IAM.PC.DD2 HPLC columns (Regis Technologies, Inc., IL, USA) with dimensions of 100 x 4.6 mm, particle size 10 μm with 300 Å pore size.
Two batches of IAM.PC.DD2 columns were studied (R20511-014-3 and P20511-014-3) that had been prepared using the new batches of silica support.
The retention times were standardized using the IAM calibration mixture, containing octanophenone, heptanophenone, hexanophenone, valerophenone, butyrophenone, propiophenone, acetophenone, acetanilide and paracetamol. The retention times of the compounds were plotted against the isocratically determined and predefined CHI (IAM) values listed in Table 1. The slope and intercept of the obtained straight line was used to calculate the CHI IAM values of new compounds.

[2] = human
[3] = molecular target: T1, human serum albumin (HSA) (Homo sapiens, UniProt P02768); test: Protein binding on chemically bonded HSA column (Chiralpak-HSA); conditions: remeasured in this study, pH 7.4
Experimental: Mobile phase A was 50 mM ammonium acetate adjusted to pH 7.4 and mobile phase B was 2-propanol. The flow rate was 1.5 mL/min and the run time was 6 min. The 2-propanol gradient was applied from 0 to 35% from 0 to 3.00 min and kept at 35% until 4.00 min.

[4] = design: method as in earlier work; conditions: constant, isocratically determined and predefined values of the calibration set; cited from earlier work
[5] = molecular target: T1, human serum albumin (HSA); conditions: cited from earlier work
[6] = cited from earlier work; for CHI (IAM) from ref [13]: reference CHI (IAM), old columns

T1 sequence (P02768 25-609): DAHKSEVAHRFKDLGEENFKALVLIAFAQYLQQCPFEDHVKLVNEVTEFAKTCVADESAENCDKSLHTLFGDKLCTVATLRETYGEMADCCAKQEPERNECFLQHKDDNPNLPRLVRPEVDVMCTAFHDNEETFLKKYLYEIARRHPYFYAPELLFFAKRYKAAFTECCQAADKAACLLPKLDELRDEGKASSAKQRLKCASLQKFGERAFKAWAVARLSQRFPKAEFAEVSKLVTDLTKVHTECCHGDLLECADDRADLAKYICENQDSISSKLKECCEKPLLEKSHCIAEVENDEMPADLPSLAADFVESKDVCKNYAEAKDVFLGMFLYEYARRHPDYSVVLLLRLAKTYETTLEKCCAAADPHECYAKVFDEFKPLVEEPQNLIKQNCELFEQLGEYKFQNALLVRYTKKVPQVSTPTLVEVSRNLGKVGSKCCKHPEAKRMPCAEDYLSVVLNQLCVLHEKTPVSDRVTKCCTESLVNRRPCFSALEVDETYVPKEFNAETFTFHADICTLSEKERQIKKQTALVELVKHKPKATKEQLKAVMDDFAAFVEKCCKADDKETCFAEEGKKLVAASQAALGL

Row | Structure (SMILES) | log K (IAM) [1] | P20511-014-3 CHI (IAM) [1] | R20511-014-3 CHI (IAM) [1] | reference log Vdss [2] | log K HSA [3] | CHI (IAM) [4] | log K HSA from ref [13] [5] | CHI (IAM) from ref [13] [6] | CHI (IAM) deviation between reference and new IAM.PC.DD2 columns ([1]; system suitability test compounds) | CHI (IAM) “new” ([1]; system suitability test compounds, new IAM.PC.DD2 columns, pH 7.4) | outlier in correlation of reference CHI (IAM) with CHI (IAM) on column R20511-014-3 ([1]; lower CHI (IAM) on new batches, outlier if difference greater than 7.2 CHI IAM units) | CHI (IAM) ([6]; previously published, IAM column manufactured 2004-2012)
1 | CC(=O)Nc1ccccc1 [Acetanilide] | 1.45 | 11.50 | 11.55 | -0.13 | 0.43 | 11.5 | 0.62 | 10.70 |  |  |  | 
2 | CC(=O)c1ccccc1 [Acetophenone] | 1.67 |  |  |  |  | 17.2 |  |  |  |  |  | 
3 | CCCC(=O)c1ccccc1 [Butyrophenone] | 2.62 |  |  |  |  | 32.0 |  |  |  |  |  | 
4 | CCCCCCC(=O)c1ccccc1 [Heptanophenone] | 4.30 |  |  |  |  | 45.7 |  |  |  |  |  | 
5 | CCCCCC(=O)c1ccccc1 [Hexanophenone] | 3.71 |  |  |  |  | 41.8 |  |  |  |  |  | 
6 | COC(=O)C1=C(C)NC(C)=C(C(=O)OCCN(C)Cc2ccccc2)C1c1cccc([N+](=O)[O-])c1 (stereo not shown) [Nicardipine] |  | 43.73 | 43.82 | 0.47 | 1.95 |  | 1.41 | 45.90 | very similar | 45.0 |  | 
7 | CCOC(=O)C1=C(C)NC(C)=C(C(=O)OC)C1c1cccc([N+](=O)[O-])c1 (stereo not shown) [Nitrendipine] |  | 39.19 | 39.06 | 0.16 | 2.70 |  | 2.35 | 40.50 |  |  |  | 
8 | CCCCCCCC(=O)c1ccccc1 [Octanophenone] | 4.97 |  |  |  |  | 49.4 |  |  |  |  |  | 
9 | CC(=O)Nc1ccc(O)cc1 [Paracetamol] | 1.20 |  |  |  |  | 2.90 |  |  |  |  |  | 
10 | CC(=O)CCCCn1c(=O)c2c(ncn2C)n(C)c1=O [Pentoxifylline] |  | 13.87 | 14.04 | -0.1 | 4.03 |  | 3.27 | 12.00 |  |  |  | 
11 | O=C1NC(=O)C(c2ccccc2)(c2ccccc2)N1 [Phenytoin] |  | 30.20 | 30.18 | 0.03 | 0.63 |  | 0.54 | 31.60 |  |  |  | 
12 | CC(C)NCC(O)COc1cccc2[nH]ccc12 (stereo not shown) [Pindolol] |  | 25.31 | 25.69 | 0.85 | 2.40 |  | 1.81 | 42.00 |  |  | outliers | 
13 | CCC1(c2ccccc2)C(=O)NCNC1=O [Primidone] |  | 10.49 | 10.31 | -0.15 | 4.01 |  | 3.44 | 8.90 |  |  |  | 
14 | CCCN(CCC)S(=O)(=O)c1ccc(C(=O)O)cc1 [Probenecid] |  | 24.38 | 23.45 | -0.75 | 0.49 |  | 0.76 | 20.10 |  |  |  | 
15 | CCC(=O)c1ccccc1 [Propiophenone] | 2.15 |  |  |  |  | 25.9 |  |  |  |  |  | 
16 | Nc1ccc(S(=O)(=O)Nc2ccc(Cl)nn2)cc1 [Sulfachlorpyridazine] |  | 10.83 | 10.08 | -0.76 | 2.20 |  | 2.04 | 6.00 |  |  |  | 
17 | COc1cnc(NS(=O)(=O)c2ccc(N)cc2)nc1 [Sulfameter] |  | 7.09 | 6.92 | -0.61 | 2.44 |  | 4.09 | 3.70 |  |  |  | 
18 | Cc1cc(C)nc(NS(=O)(=O)c2ccc(N)cc2)n1 [Sulphadimidine] |  | 11.09 | 10.89 | 0.22 | 1.72 |  | 0.75 | 34.55 |  |  |  | 34.6
19 | Cc1c(Cl)cccc1Nc1ccccc1C(=O)O [Tolfenamic Acid] |  | 41.53 | 40.72 | -0.76 | 6.60 |  | 2.46 | 36.60 |  |  |  | 
20 | CCCCC(=O)c1ccccc1 [Valerophenone] | 3.16 |  |  |  |  | 37.3 |  |  |  |  |  | 
